Converted amounts (≈) assume the structure as drawn. The source made the active and inactive calls. The calls are words filed in the database; no cut-off is given here.
How the values were obtained:
[1] = Inhibition of porcine platelets cPLA2 alpha using 1-stearoyl-2-arachidonoyl-sn-glycero-3-phosphocholine as substrate incubated for 60 mins by RP-HPLC -MS analysis; parameters: species or system Sus scrofa
Sus scrofa = organism: Sus scrofa; experiment: Inhibition of porcine platelets cPLA2 alpha using 1-stearoyl-2-arachidonoyl-sn-glycero-3-phosphocholine as substrate at 10 uM incubated for 60 mins by RP-HPLC -MS analysis relative to control
[2] = Aqueous solubility of compound in phosphate buffered saline at pH 7.4 incubated for 10 min by RP-HPLC analysis; assay type: physicochemical
[3] = Lipophilicity, logP of compound in acetonitrile/phosphate buffered saline at pH 7.4 by RP-HPLC analysis; assay type: physicochemical
[4] = Drug metabolism in human CaCo-2 cells assessed as beta-oxidation of pentanoic acid chain by measuring 3-(5-{[5-Chloro-1-(2,4-dichlorobenzyl)indol-3-yl]methyl}-2H-tetrazol-2-yl) propionic acid formation at 10 uM; assay type: ADME, cell-based; settings: caco-2, 10 µM
[5] = Apparent permeability coefficient in human CaCo-2 cells at 10 uM incubated for 2 hrs by HPLC-MS analysis; assay type: ADME, cell-based

| IC50 [1] [µM] | inhibition (Sus scrofa) | SMILES | also measured |
| --- | --- | --- | --- |
| > 10 | 37% | O=C(O)c1ccc(Cn2nnc(-c3cn(Cc4ccc(Cl)cc4Cl)c4ccccc34)n2)cc1 |  |
| > 10 | 47% | Cc1noc(-c2cn(CCc3cn(Cc4ccc(Cl)cc4Cl)c4ccccc34)c3ccc(C(=O)O)cc23)n1 |  |
|  | 30% | O=C(O)c1ccc(N/N=C/c2ccc3c(ccn3Cc3ccc(Cl)cc3Cl)c2)cc1 |  |
|  | 32% | O=C(O)c1ccc(N/N=C/c2ccc3ccn(Cc4ccc(Cl)cc4Cl)c3c2)cc1 |  |
| > 10 | 32% | O=C(O)CCCn1nnc(Cc2cn(Cc3ccc(Cl)cc3Cl)c3ccccc23)n1 |  |
| > 10 | 41% | O=C(O)CCCCn1nnc(Cc2cn(Cc3ccccc3)c3ccccc23)n1 |  |
| 9 |  | O=C(O)CCCCCn1nnc(-c2cn(Cc3ccc(Cl)cc3Cl)c3ccccc23)n1 |  |
| 3.2 |  | O=C(O)CCCCn1nnc(Cc2cn(Cc3ccc(Cl)cc3Cl)c3ccc(-c4ccccc4)cc23)n1 |  |
|  | 27% | CN(/N=C/c1cn(Cc2ccc(Cl)cc2Cl)c2ccccc12)c1ccc(C(=O)O)cc1 |  |
| 0.17 |  | O=C(O)CCCCn1nnc(Cc2cn(Cc3ccc(Cl)cc3Cl)c3cc(C(F)(F)F)ccc23)n1 |  |
| > 10 | 24% | O=C(O)c1ccc2c(c1)c(C(=O)O)cn2CCc1cn(Cc2ccc(Cl)cc2Cl)c2ccccc12 |  |
| 0.29 |  | O=C(O)CCc1ccc2c(c1)c(CCc1ccccc1)cn2-c1ccc(Oc2ccccc2)cc1 | solubility at 10 min [2]: < 1 µg/mL; logP [3]: 6.4 |
|  | 15% | O=C(O)c1ccc(N/N=C/c2cn(Cc3ccccc3Oc3ccccc3)c3ccccc23)cc1 |  |
| 4.8 |  | O=C(O)CCCCn1nnc(CCc2cn(Cc3ccc(Cl)cc3Cl)c3ccccc23)n1 |  |
| > 10 | 32% | O=C(O)c1ccc2nn(CCc3cn(Cc4ccc(Cl)cc4Cl)c4ccccc34)cc2c1 |  |
| 6 |  | O=C(CCc1cn(Cc2ccc(Cl)cc2Cl)c2ccccc12)Oc1ccc(C(=O)O)cc1 |  |

| IC50 [1] [µM] | inhibition (Sus scrofa) | SMILES | also measured |
| --- | --- | --- | --- |
| > 10 | 33% | O=C(O)CCCCn1nnc(Cc2cn(Cc3cccc(Cl)c3)c3ccccc23)n1 |  |
| > 10 | 22% | O=C(O)CCCn1nnc(-c2cn(Cc3ccc(Cl)cc3Cl)c3ccccc23)n1 |  |
| 7 |  | Cc1ccc(Cn2cc(Cc3nnn(CCCCC(=O)O)n3)c3ccccc32)cc1 |  |
| 1 |  | Cc1ccc2c(Cc3nnn(CCCCC(=O)O)n3)cn(Cc3ccc(Cl)cc3Cl)c2c1 |  |
| 0.57 |  | O=C(O)CCCCn1nnc(Cc2cn(Cc3ccc(Cl)cc3Cl)c3ccc(OC(F)(F)F)cc23)n1 |  |
| 5.6 |  | O=C(O)CCCCn1nnc(Cc2cn(Cc3ccc(Cl)c(Cl)c3)c3ccccc23)n1 |  |
| 0.75 |  | O=C(O)CCCCn1nnc(Cc2cn(Cc3ccc(Cl)cc3Cl)c3cc(F)ccc23)n1 |  |
| 0.9 |  | O=C(O)CCCCn1nnc(Cc2cn(Cc3ccc(Cl)cc3Cl)c3ccc(-c4ccc(Cl)cc4)cc23)n1 |  |
|  | 17% | O=C(O)c1ccc(N/N=C/c2cn(Cc3cccc(Oc4ccccc4)c3)c3ccccc23)cc1 |  |
| 3.9 |  | O=C(O)c1ccc2nn(CCc3cn(Cc4ccc(Cl)cc4Cl)c4ccccc34)nc2c1 |  |
| > 10 | 48% | O=C(O)CCCCn1nnc(-c2cn(Cc3ccc(Cl)cc3Cl)c3ccccc23)n1 |  |
|  | 24% | O=C(O)c1ccc(N/N=C/c2cccc3c2ccn3Cc2ccc(Cl)cc2Cl)cc1 |  |
| 8 |  | O=C(O)c1ccc2c(c1)c(C(=O)C(F)(F)F)cn2CCc1cn(Cc2ccc(Cl)cc2Cl)c2ccccc12 |  |
|  | 20% | O=C(O)c1ccc(N/N=C/c2cn(Cc3ccc(Cl)c(Cl)c3)c3ccccc23)cc1 |  |
| 2.8 |  | O=C(O)c1ccc(Cn2nnc(Cc3cn(Cc4ccc(Cl)cc4Cl)c4ccccc34)n2)cc1 |  |

The remaining lines, values behind:

| SMILES | IC50 [1] [µM] | inhibition (Sus scrofa) | also measured |
| --- | --- | --- | --- |
| COc1ccc2c(Cc3nnn(CCCCC(=O)O)n3)cn(Cc3ccc(Cl)cc3Cl)c2c1 | 4.6 |  |  |
| O=C(O)c1ccc(N/N=C/c2cn(Cc3ccccc3)c3ccccc23)cc1 |  | 16% |  |
| O=C(O)c1ccc2c(ccn2CCc2cn(Cc3ccc(Cl)cc3Cl)c3ccccc23)c1 | > 10 | 41% |  |
| O=C(O)CCCCn1nnc(Cc2cn(Cc3c(Cl)cccc3Cl)c3ccccc23)n1 | > 10 | 19% |  |
| O=C(O)CCCCn1nnc(Cc2cn(Cc3ccc(Cl)cc3Cl)c3ccc(C(F)(F)F)cc23)n1 | 0.074 |  | solubility at 10 min [2]: < 1 µg/mL; logP [3]: 4.9 |
| O=C(O)CCCCn1nnc(Cc2cn(Cc3ccc(F)cc3)c3ccccc23)n1 | > 10 | 48% |  |
| O=C(O)c1ccc(OC(=O)c2cn(Cc3ccc(Cl)cc3Cl)c3ccccc23)cc1 | > 10 | 45% |  |
| O=C(O)CCCCn1nnc(Cc2cn(Cc3ccc(Cl)cc3Cl)c3ccccc23)n1 | 0.71 |  | solubility at 10 min [2]: 152 µg/mL (≈ 332 µM); logP [3]: 4 |
| O=C(O)c1ccc2c(cnn2CCc2cn(Cc3ccc(Cl)cc3Cl)c3ccccc23)c1 | 3.8 |  |  |
| Cc1ccc2c(c1)c(Cc1nnn(CCCCC(=O)O)n1)cn2Cc1ccc(Cl)cc1Cl | 0.21 |  | solubility at 10 min [2]: 15 µg/mL (≈ 31.8 µM); logP [3]: 4.6 |
| O=C(O)c1ccc(N/N=C/c2cn(Cc3ccc(C(F)(F)F)cc3)c3ccccc23)cc1 |  | 15% |  |
| O=C(O)CCCCn1nnc(Cc2cn(Cc3ccc(Cl)cc3Cl)c3ccc(OCc4ccc(Cl)cc4)cc23)n1 | 5.3 |  |  |
| O=C(O)CCCCn1nnc(Cc2cn(Cc3ccc(Cl)cc3)c3ccccc23)n1 | 4.2 |  |  |
| COc1ccc2c(c1)c(Cc1nnn(CCCCC(=O)O)n1)cn2Cc1ccc(Cl)cc1Cl | 4.7 |  |  |
| O=C(O)CCCCCn1nnc(Cc2cn(Cc3ccc(Cl)cc3Cl)c3ccccc23)n1 | 1.4 |  |  |
| O=C(O)CCCCn1nnc(Cc2cn(Cc3ccc(-c4ccccc4)cc3)c3ccccc23)n1 | > 10 | 47% |  |
| O=C(O)CCCCn1nnc(Cc2cn(Cc3ccccc3Cl)c3ccccc23)n1 | 2.9 |  |  |
| O=C(O)CCCCn1nnc(Cc2cn(Cc3ccc(Cl)cc3Cl)c3ccc(Cl)cc23)n1 | 0.071 |  | Drug metabolism [4]: Metabolite_Detected; solubility at 10 min [2]: < 1 µg/mL; Papp at 2 h, 10 µM [5]: 15 ×10⁻⁶ cm/s; logP [3]: 4.7 |
| O=C(O)c1ccc(N/N=C/c2cn(Cc3ccc(Oc4ccccc4)cc3)c3ccccc23)cc1 |  | inactive |  |
| COc1ccc2c(c1)c(CC(=O)O)c(C)n2C(=O)c1ccc(Cl)cc1 [INDOMETHACIN] |  |  | solubility at 10 min [2]: 260 µg/mL (≈ 727 µM); Papp at 2 h, 10 µM [5]: 27 ×10⁻⁶ cm/s; logP [3]: 2.9 |
| O=C(Cc1cn(Cc2ccc(Cl)cc2Cl)c2ccccc12)Oc1ccc(C(=O)O)cc1 | 3.2 |  |  |
| O=C(O)CCCn1nnc(CCc2cn(Cc3ccc(Cl)cc3Cl)c3ccccc23)n1 | > 10 | 23% |  |
| O=C(O)CCCCn1nnc(Cc2cn(Cc3ccc(Cl)cc3Cl)c3ccc(F)cc23)n1 | 0.2 |  | solubility at 10 min [2]: 74 µg/mL (≈ 155 µM); logP [3]: 4.1 |
| COC(=O)c1cn(CCc2cn(Cc3ccc(Cl)cc3Cl)c3ccccc23)c2ccc(C(=O)O)cc12 | 7.1 |  |  |
| O=C(O)CCCCn1nnc(Cc2cn(Cc3ccc(Cl)cc3Cl)c3cc(Cl)ccc23)n1 | 0.36 |  |  |
| O=C(O)CCCCn1nnc(Cc2cn(Cc3ccc(C(F)(F)F)cc3)c3ccccc23)n1 |  | inactive |  |
| O=C(O)c1ccc(OCCc2cn(Cc3ccc(Cl)cc3Cl)c3ccccc23)cc1 | 1.1 |  |  |
| O=C(O)c1ccc(N/N=C/c2cn(Cc3ccc(Cl)cc3Cl)c3ccccc23)cc1 | 22 | 21% |  |
| Cc1c(CCOc2ccc(C(=O)O)cc2)c2cc(Cl)ccc2n1C(c1ccccc1)c1ccccc1 | 0.23 |  | solubility at 10 min [2]: < 1 µg/mL; logP [3]: 6.2 |

— ChEMBL document CHEMBL5344444, “1-Benzylindoles as inhibitors of cytosolic phospholipase A2α: synthesis, biological activity, aqueous solubility, and cell permeability” (RSC Med Chem, 2024)
